# Results reported in the supplement of paper PMC10307832.
# Experiments:
# Experiment in all cases: relative viability (nuclei count vs DMSO), 5 days (fraction); higher = more cells survive
# [1] = tested on: CAL-12T
# Procedure, shortened: (§1)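 Relative viability equals treated-well nuclei counts divided by vehicle-well nuclei counts. Counts came from 4× images of lung cancer cell lines grown in 1536-well plates for 5 days after pin-tool dosing on the day after seeding. Dosing used one drug alone or a fixed anchor-drug dose plus five library-drug doses (not always all listed) in √10 steps, and values are medians of duplicate plates.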
# [2] = tested on: NCI-H441
# Procedure, shortened: as §1
# [3] = tested on: HCC-15
# Procedure, shortened: as §1
# [4] = tested on: NCI-H1651
# Procedure, shortened: as §1
# [5] = tested on: NCI-H2085
# Procedure, shortened: as §1
# [6] = tested on: EKVX
# Procedure, shortened: as §1
# [7] = tested on: HCC-366
# Procedure, shortened: as §1
# [8] = tested on: NCI-H460
# Procedure, shortened: as §1
# [9] = tested on: NCI-H2023
# Procedure, shortened: as §1
# [10] = tested on: LOU-NH91
# Procedure, shortened: as §1
# [11] = tested on: NCI-H1734
# Procedure, shortened: as §1
# [12] = tested on: NCI-H838
# Procedure, shortened: as §1
# [13] = tested on: LCLC-103H
# Procedure, shortened: as §1
# [14] = tested on: NCI-H1355
# Procedure, shortened: as §1
# [15] = tested on: NCI-H1975
# Procedure, shortened: as §1
# [16] = tested on: BEN
# Procedure, shortened: as §1
# [17] = tested on: NCI-H1437
# Procedure, shortened: as §1
# [18] = tested on: NCI-H1563
# Procedure, shortened: as §1
# [19] = tested on: NCI-H358
# Procedure, shortened: as §1
# [20] = tested on: NCI-H1650
# Procedure, shortened: as §1
# [21] = tested on: HCC-44
# Procedure, shortened: as §1
# [22] = tested on: NCI-H1755
# Procedure, shortened: as §1
structure (smiles),measurement,setting,value
COc1cc(N2CCC(C(N)=O)CC2)ccc1Nc1nc(N)c(Cl)c(Nc2ccccc2S(=O)(=O)C(C)C)n1 [HG-5-88-01] + C[C@@H](Oc1cc(-c2cnn(C3CCNCC3)c2)cnc1N)c1c(Cl)ccc(F)c1Cl [Crizotinib] (partner 1 µM),relative viability,[1]; first compound 0.04 µM,0.589
same,relative viability,[1]; first compound 0.1265 µM,0.671
same,relative viability,[1]; first compound 0.4 µM,0.421
same,relative viability,[1]; first compound 1.265 µM,0.432
same,relative viability,[1]; first compound 4 µM,0.183
same,relative viability,[2]; first compound 0.04 µM,0.655
same,relative viability,[2]; first compound 0.1265 µM,0.764
same,relative viability,[2]; first compound 0.4 µM,0.554
same,relative viability,[2]; first compound 1.265 µM,0.648
same,relative viability,[2]; first compound 4 µM,0.431
same,relative viability,[3]; first compound 0.04 µM,0.898
same,relative viability,[3]; first compound 0.1265 µM,0.775
same,relative viability,[3]; first compound 0.4 µM,0.779
same,relative viability,[3]; first compound 1.265 µM,0.801
same,relative viability,[3]; first compound 4 µM,0.77
same,relative viability,[4]; first compound 0.04 µM,0.866
same,relative viability,[4]; first compound 0.1265 µM,0.828
same,relative viability,[4]; first compound 0.4 µM,0.808
same,relative viability,[4]; first compound 1.265 µM,0.713
same,relative viability,[4]; first compound 4 µM,0.942
same,relative viability,[5]; first compound 0.04 µM,0.734
same,relative viability,[5]; first compound 0.1265 µM,0.856
same,relative viability,[5]; first compound 0.4 µM,0.873
same,relative viability,[5]; first compound 1.265 µM,0.694
same,relative viability,[5]; first compound 4 µM,0.63
same,relative viability,[6]; first compound 0.04 µM,0.989
same,relative viability,[6]; first compound 0.1265 µM,0.93
same,relative viability,[6]; first compound 0.4 µM,0.892
same,relative viability,[6]; first compound 4 µM,0.843
same,relative viability,[7]; first compound 0.04 µM,0.642
same,relative viability,[7]; first compound 0.1265 µM,0.487
same,relative viability,[7]; first compound 0.4 µM,0.468
same,relative viability,[7]; first compound 1.265 µM,0.441
same,relative viability,[7]; first compound 4 µM,0.198
same,relative viability,[8]; first compound 0.04 µM,0.83
same,relative viability,[8]; first compound 0.1265 µM,1.06
same,relative viability,[8]; first compound 0.4 µM,0.851
same,relative viability,[8]; first compound 1.265 µM,0.843
same,relative viability,[8]; first compound 4 µM,0.0524
same,relative viability,[9]; first compound 0.04 µM,0.729
same,relative viability,[9]; first compound 0.1265 µM,0.763
same,relative viability,[9]; first compound 0.4 µM,0.543
same,relative viability,[9]; first compound 1.265 µM,0.405
same,relative viability,[9]; first compound 4 µM,0.118
same,relative viability,[10]; first compound 0.04 µM,0.745
same,relative viability,[10]; first compound 0.1265 µM,0.737
same,relative viability,[10]; first compound 0.4 µM,0.671
same,relative viability,[10]; first compound 1.265 µM,0.494
same,relative viability,[10]; first compound 4 µM,0.566
same,relative viability,[11]; first compound 0.04 µM,0.71
same,relative viability,[11]; first compound 0.1265 µM,0.709
same,relative viability,[11]; first compound 0.4 µM,0.681
same,relative viability,[11]; first compound 1.265 µM,0.497
same,relative viability,[11]; first compound 4 µM,0.64
same,relative viability,[12]; first compound 0.04 µM,0.799
same,relative viability,[12]; first compound 0.1265 µM,0.868
same,relative viability,[12]; first compound 0.4 µM,0.641
same,relative viability,[12]; first compound 1.265 µM,0.571
same,relative viability,[12]; first compound 4 µM,0.596
same,relative viability,[13]; first compound 0.04 µM,0.987
same,relative viability,[13]; first compound 0.1265 µM,0.955
same,relative viability,[13]; first compound 0.4 µM,0.95
same,relative viability,[13]; first compound 1.265 µM,0.923
same,relative viability,[13]; first compound 4 µM,0.985
same,relative viability,[14]; first compound 0.04 µM,1.19
same,relative viability,[14]; first compound 0.1265 µM,1.05
same,relative viability,[14]; first compound 0.4 µM,1.02
same,relative viability,[14]; first compound 1.265 µM,0.983
same,relative viability,[14]; first compound 4 µM,0.972
same,relative viability,[15]; first compound 0.04 µM,1.03
same,relative viability,[15]; first compound 0.1265 µM,1.03
same,relative viability,[15]; first compound 0.4 µM,0.821
same,relative viability,[15]; first compound 1.265 µM,0.794
same,relative viability,[15]; first compound 4 µM,0.334
same,relative viability,[16]; first compound 0.04 µM,0.975
same,relative viability,[16]; first compound 0.1265 µM,0.915
same,relative viability,[16]; first compound 0.4 µM,0.895
same,relative viability,[16]; first compound 1.265 µM,0.625
same,relative viability,[16]; first compound 4 µM,0.962
same,relative viability,[17]; first compound 0.04 µM,0.896
same,relative viability,[17]; first compound 0.1265 µM,0.927
same,relative viability,[17]; first compound 0.4 µM,0.899
same,relative viability,[17]; first compound 1.265 µM,0.822
same,relative viability,[17]; first compound 4 µM,1.03
same,relative viability,[18]; first compound 0.04 µM,0.917
same,relative viability,[18]; first compound 0.1265 µM,0.88
same,relative viability,[18]; first compound 0.4 µM,0.832
same,relative viability,[18]; first compound 1.265 µM,0.806
same,relative viability,[18]; first compound 4 µM,0.854
same,relative viability,[19]; first compound 0.04 µM,0.526
same,relative viability,[19]; first compound 0.1265 µM,0.461
same,relative viability,[19]; first compound 0.4 µM,0.529
same,relative viability,[19]; first compound 1.265 µM,0.318
same,relative viability,[19]; first compound 4 µM,0.235
same,relative viability,[20]; first compound 0.04 µM,1.04
same,relative viability,[20]; first compound 0.1265 µM,1.01
same,relative viability,[20]; first compound 0.4 µM,0.948
same,relative viability,[20]; first compound 1.265 µM,0.817
same,relative viability,[20]; first compound 4 µM,0.373
same,relative viability,[21]; first compound 0.04 µM,0.777
same,relative viability,[21]; first compound 0.1265 µM,0.791
same,relative viability,[21]; first compound 0.4 µM,0.797
same,relative viability,[21]; first compound 1.265 µM,0.611
same,relative viability,[21]; first compound 4 µM,0.489
same,relative viability,[22]; first compound 0.1265 µM,0.86
same,relative viability,[22]; first compound 0.4 µM,0.854
same,relative viability,[22]; first compound 1.265 µM,0.768
same,relative viability,[22]; first compound 4 µM,0.933
